Experiments:
OVCAR3 cell = assay: Binding of the FAM-labelled oligopeptide to ovarian cancer cells, fluorescence microscopy; design: species or system human; settings: 12-well plate, 1×10^5 cells/well, 60 rpm, 60 minutes, room temperature, FIG. 3
Source text: (§1) In subsequent examples, the oligopeptide of the present disclosure is used to detect whether the sample has the oligopeptide-cancer cell complex. The oligopeptide consisted of the amino acid sequence of SEQ ID NO: 1 is chemically synthesized and modified a green fluorescence (FAM) at N-terminus in subsequent examples.
(§2) The sample uses in this example is the ovarian cancer cell, wherein the ovarian cancer cell is OVCAR3 cell (a human serous epithelial ovarian cancer cell line). Besides, a normal cervical epithelial cell is used as the control. The OVCAR3 cell and the normal cervical epithelial cell are cultured and stored in Department of Obstetrics and Gynecology of National Cheng Kung University Hospital. The OVCAR3 cell and the normal cervical epithelial cell are respectively seeded in a 12-well plate with 1×10^5 cells/well and then maintained at 37° C. in a humidified atmosphere of 5% CO2 until the cells are adhered in the next day. The oligopeptide modified with the green fluorescence is respectively mixed with different groups of the sample at 60 rpm for 60 minutes at room temperature. The sample is washed several times with the PBS containing 1% BSA. Then the sample is observed under a fluorescence microscopy, wherein the green fluorescent signal represents that the oligopeptide-cancer cell complex is presented in the sample.

[1] = tested on: normal cervical epithelial cell; assay: Binding of the FAM-labelled oligopeptide to control cells, fluorescence microscopy; settings: 12-well plate, 1×10^5 cells/well, 60 rpm, 60 minutes, room temperature, FIG. 3
Source text: as §1, §2

[2] = tested on: ovarian clear cell carcinoma tissue section; assay: Binding of the FAM-labelled oligopeptide to ovarian cancer tissue sections, fluorescence microscopy; settings: 60 rpm, 60 minutes, room temperature, FIG. 2
Source text: as §1
(§3) The sample uses in this example is the ovarian cancer tissue including an ovarian serous tumor tissue section, an ovarian mucinous tumor tissue section and an ovarian clear cell carcinoma tissue section. Besides, a normal ovarian tissue section is used as a control. The oligopeptide modified with the green fluorescence is respectively mixed with different groups of the sample at 60 rpm for 60 minutes at room temperature. The samples are washed several times with PBS containing 1% BSA. Then the sample is observed under a fluorescence microscopy, wherein the green fluorescent signal represents that the oligopeptide-cancer cell complex is presented in the sample.

[3] = tested on: ovarian mucinous tumor tissue section; assay: as above; settings: 60 rpm, 60 minutes, room temperature, FIG. 2
Source text: as §1, §3

[4] = tested on: ovarian serous tumor tissue section; assay: as above; settings: 60 rpm, 60 minutes, room temperature, FIG. 2
Source text: as §1, §3

[5] = tested on: normal ovarian tissue section; assay: Binding of the FAM-labelled oligopeptide to control tissue section, fluorescence microscopy; settings: 60 rpm, 60 minutes, room temperature, FIG. 2
Source text: as §1, §3

oligopeptide of the present disclosure: oligopeptide consisted of the amino acid sequence of SEQ ID NO: 1, chemically synthesized, specific to ovarian cancer (KRLTPLSPDHYD)
FAM signal (oligopeptide-cancer cell complex) (OVCAR3 cell): FAM signal can be detected
FAM signal (oligopeptide-cancer cell complex) [1]: no significant FAM signal detected
green fluorescent signal (oligopeptide-cancer cell complex) [2]: green fluorescent signal can be detected
green fluorescent signal (oligopeptide-cancer cell complex) [3]: green fluorescent signal can be detected
green fluorescent signal (oligopeptide-cancer cell complex) [4]: green fluorescent signal can be detected
green fluorescent signal (oligopeptide-cancer cell complex) [5]: no significant green fluorescent signal detected

Reference: US10107817B2, “Oligopeptide specific to ovarian cancer, polynucleotide for encoding oligopeptide, test kit for detecting ovarian cancer and method for detecting ovarian cancer” (NATIONAL TSING HUA UNIVERSITY, priority 2016, dated 2018)
